# Results published in patent US12391679B2, “Benzamide-substituted bicyclic imidazo- and pyrazolo-fused -pyridine, -pyrimide, and -pyridazine compounds for treatment of inflammatory diseases” (ONCO3R Therapeutics BV, priority 2019, dated 2025).
# pEC50, pIC50: −log10 of the molar value.
# Assays:
# SIK1 [1] = target: T1, SIK1 (Homo sapiens, UniProt P57059); test: 33P radioactive kinase assay, SIK1; assay type: biochemical
# T1 construct: purchased Carna Biosciences 02-131
# Protocol: (§1) The principle of the ^33P radioactive kinase assay consists in measuring the incorporated ^33P into the substrate AMARA peptide when phosphorylated by SIK1, SIK2 or SIK3 using [^33P]-g-ATP, which correlates with kinase activity.
# (§2) The test compounds are prepared as a serial dilution of 10 point dose responses with 1/5 dilution steps in 100% DMSO starting from 2 mM highest concentration, diluted 1/20 in water and 5 μL is transferred to the assay plates (Greiner, Cat #651201).
# (§3) 1% DMSO and 10 μM staurosporine final concentrations are used as negative and positive controls.
# (§4) 11 μL of enzyme-substrate mixture is added on the assay plates. The reactions are started by adding 9 μL ATP mixture, consisting of non-labeled and ^33P-labeled ATP, on the assay plates.
# (§5) The reactions are stopped by adding 25 μL phosphoric acid (150 mM) to the reactions.
# (§6) The completely terminated kinase reactions are transferred using a harvester on pre-wetted UniFilter-96 plates (UniFilter-96 GF/B, PerkinElmer Inc., Cat #6005177).
# (§7) After harvesting the kinase reactions, the filter plates are washed 6 times with phosphoric acid (75 mM). The back of the UniFilter-96 plates are sealed and 40 μL MicroScint-20 (PerkinElmer Inc., Cat #6013621) is added to each well. The top of the plates are sealed with TopSeal-A. Read-out is performed with a TopCount instrument (PerkinElmer Inc.).
# (§8) Raw data are generated following the read-out performed on the TopCount, plotted to generate dose response curves to calculate percentage inhibition (PIN) and average IC50 for each SIK homologue which are reported in the table below.
# SIK2 [2] = target: T2, SIK2 (Homo sapiens, UniProt Q9H0K1); test: 33P radioactive kinase assay, SIK2; assay type: biochemical; note: AMARA 5 µM, 10 µM ATP
# T2 construct: purchased ThermoFisher Scientific PV4792
# T2 sequence (Q9H0K1 whole entry): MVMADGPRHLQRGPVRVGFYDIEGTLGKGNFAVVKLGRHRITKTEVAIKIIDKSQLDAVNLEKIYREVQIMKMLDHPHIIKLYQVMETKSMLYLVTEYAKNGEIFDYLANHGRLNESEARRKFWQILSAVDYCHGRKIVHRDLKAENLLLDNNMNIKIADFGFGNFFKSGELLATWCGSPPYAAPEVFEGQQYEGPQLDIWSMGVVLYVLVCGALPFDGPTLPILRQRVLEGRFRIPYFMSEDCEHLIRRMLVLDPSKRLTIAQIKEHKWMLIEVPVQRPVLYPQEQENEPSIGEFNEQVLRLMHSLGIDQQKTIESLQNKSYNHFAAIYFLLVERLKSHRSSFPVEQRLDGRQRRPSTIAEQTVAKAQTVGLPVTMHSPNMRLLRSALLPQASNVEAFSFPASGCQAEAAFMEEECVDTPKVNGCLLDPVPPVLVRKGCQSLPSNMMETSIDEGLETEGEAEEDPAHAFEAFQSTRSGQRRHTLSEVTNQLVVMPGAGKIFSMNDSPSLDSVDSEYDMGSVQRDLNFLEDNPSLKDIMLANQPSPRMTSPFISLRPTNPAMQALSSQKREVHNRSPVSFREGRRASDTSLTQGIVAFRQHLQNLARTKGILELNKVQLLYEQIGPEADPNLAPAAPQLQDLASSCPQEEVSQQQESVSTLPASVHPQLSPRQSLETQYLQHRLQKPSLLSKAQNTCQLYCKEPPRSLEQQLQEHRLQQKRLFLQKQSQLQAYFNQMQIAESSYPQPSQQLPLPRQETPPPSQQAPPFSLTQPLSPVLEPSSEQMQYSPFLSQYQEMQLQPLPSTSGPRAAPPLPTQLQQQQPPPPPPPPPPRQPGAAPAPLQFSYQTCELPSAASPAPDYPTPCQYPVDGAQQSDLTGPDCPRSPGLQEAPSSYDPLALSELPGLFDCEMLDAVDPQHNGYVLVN
# Protocol: as §1, §2, §3, §4, §5, §6, §7, §8
# SIK3 [3] = target: T3, SIK3 (Homo sapiens, UniProt Q9Y2K2); test: 33P radioactive kinase assay, SIK3; assay type: biochemical; conditions: 33P radioactive assay; AMARA 7 μM; 15 μM ATP; 80 min; average IC50
# T3 construct: purchased SignalChem S12-11G-100
# T3 sequence (Q9Y2K2 59-365 limits assumed): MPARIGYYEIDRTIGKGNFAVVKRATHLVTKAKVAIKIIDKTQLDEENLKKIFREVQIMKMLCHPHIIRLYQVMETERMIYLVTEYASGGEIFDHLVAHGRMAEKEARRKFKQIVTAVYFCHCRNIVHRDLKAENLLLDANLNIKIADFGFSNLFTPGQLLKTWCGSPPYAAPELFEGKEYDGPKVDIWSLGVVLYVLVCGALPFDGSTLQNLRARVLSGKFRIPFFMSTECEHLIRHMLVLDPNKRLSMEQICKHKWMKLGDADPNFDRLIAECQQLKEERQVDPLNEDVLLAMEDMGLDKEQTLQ
# Protocol: as §1, §2, §3, §4, §5, §6, §7, §8
# [4] = system: LPS-induced TNFα in monocyte-derived macrophages; test: MdM assay: LPS-triggered TNFα (ELISA); assay type: cell-based, human; conditions: Macrophage; human MdM; LPS 200 ng/mL; supernatant after 20 h; inhibition of TNFα; read-out: TNFα EC50
# Protocol: This assay evaluates illustrative compounds of the invention for their inhibition of LPS-induced TNFα and LPS triggered IL-10 secretion in monocyte-derived macrophages. PBMCs are isolated from human blood samples (buffycoats). The buffy coat is aseptically transferred into a 50 mL Falcon tube, and diluted 1/2 in PBS. Falcon tubes are filled with 20 mL LymphoprepTM, on top of which 25 mL of the buffy coat is carefully added, tubes are centrifuged for 35 min at 400 g in temperature controlled centrifuge, without brake, at 25° C. PBMCs are aspirated from the white interface layer between sample and LymphoprepTM. PBMCs are washed five times in PBS. […] PBMCs are centrifuged at 300×g for 10 min and resuspended at a density of 1.0*10^7 cells/80 μL Miltenyi buffer (PBS, pH 7.4, 1% FBS, 2 mM EDTA). Starting from this point of the protocol all steps are performed on ice. 20 μL of CD14+ micro-beads are added per 1.0*10^7 cells, the tube is mixed and incubated for 15 min in the fridge at 4° C. Cell suspension volume is adjusted to total volume of 100 mL using Miltenyi buffer, mixed gently and subsequently centrifuged for 10 min at 300×g. Supernatant is discarded and cell pellet is resuspended in 12 mL of Miltenyi buffer. Four LS columns are placed in the MACS Separator (magnet) from Miltenyi Biotec, and are prewet by rinsing with 3 mL of MACS buffer per column. Three mL of cell suspension is added onto the column (max 1*10^8 of labelled cells/column), and columns are subsequently washed 3 times with 3 mL of Miltenyi buffer. The columns are removed from the magnets, and 5 mL of Miltenyi buffer are added to the column to flush out the CD14+ fraction by pushing the plunger into the column. The flushed fractions are collected in a fresh 50 mL Falcon and volume is adjusted to 30 mL using Miltenyi buffer, cells are centrifuged for 10 min at 300×g. The obtained cell pellet is resuspended in 10 mL RPMI w/o FBS, and cell density is determined using a hematologic analyser (Sysmex XS-500i). […] On day 10, MdMs are triggered and compound is added. A compound dilution plate is made in 100% DMSO by 3-fold dilution of 10 mM stock solution. An intermediate dilution plate (10× final concentration) is made by diluting the compound dilution plate […] in RPMI medium. Medium is carefully removed from cell plates using multichannel pipette, and replaced by 80 μL fresh medium. 10 μL of the 10× final concentration compound is added to the cells and incubated for 1 hour at 37° C. before addition of trigger. No trigger conditions/trigger conditions are spiked with equal final DMSO concentrations of 0.2% DMSO. 10 μL of 10×LPS (final conc. 200 ng/mL) solution are added to all wells except for the 'no trigger wells' where 10 μL medium is added. Supernatant is collected after 2 h (IL-10 determination) and after 20 h (TNFα determination) of LPS triggering. […] The plate is then washed once with PBST (PBS+0.05% Tween20) and once with PBS followed by the addition of 100 μL of blocking buffer (1% Bovine Serum Albumin (BSA) -5% Sucrose) and plates are sealed and incubated for at least 4 h at RT. After washing the plate once with PBST and once with PBS, 40 μL of standard or sample are added (TNFα standard curve is prepared using a 1/2 serial dilution starting from 16000 pg/mL; dilutions are made in dilution buffer (PBS+1% BSA)). Plates are washed twice with PBST, and once with PBS, after which 35 μL of the detection antibody is added (final concentration 0.25 μg/mL diluted in dilution buffer) and plates are incubated for at least 2 h at RT. Plates are washed twice with PBST, and once with PBS, where after 35 μL of Strep-HRP conjugate (0.5 μg/mL final concentration diluted in dilution buffer) is added. […] Plates are washed twice with PBST, and once with PBS. Thereafter, 50 μL of luminol substrate is added to each well (prepared according to manufacturer's instructions), and incubated for 5 min at RT protected from light.
# SIK1 [5] = target: T1, SIK1; test: ADP-Glo kinase assay, SIK1; assay type: biochemical
# Procedure, shortened: (§9)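 ADP-Glo format, luminescent. Room-temperature kinase reaction lasting 120 min, followed by ATP removal (40 min) and ADP detection (30 min); 10 μM staurosporine serves as full-inhibition control, 1% DMSO as uninhibited control.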
# SIK2 [6] = target: T2, SIK2; test: ADP-Glo kinase assay, SIK2; assay type: biochemical
# Procedure, shortened: as §9
# SIK3 [7] = target: T3, SIK3; test: ADP-Glo kinase assay, SIK3; assay type: biochemical
# Procedure, shortened: as §9
# T1 sequence (P57059 whole entry): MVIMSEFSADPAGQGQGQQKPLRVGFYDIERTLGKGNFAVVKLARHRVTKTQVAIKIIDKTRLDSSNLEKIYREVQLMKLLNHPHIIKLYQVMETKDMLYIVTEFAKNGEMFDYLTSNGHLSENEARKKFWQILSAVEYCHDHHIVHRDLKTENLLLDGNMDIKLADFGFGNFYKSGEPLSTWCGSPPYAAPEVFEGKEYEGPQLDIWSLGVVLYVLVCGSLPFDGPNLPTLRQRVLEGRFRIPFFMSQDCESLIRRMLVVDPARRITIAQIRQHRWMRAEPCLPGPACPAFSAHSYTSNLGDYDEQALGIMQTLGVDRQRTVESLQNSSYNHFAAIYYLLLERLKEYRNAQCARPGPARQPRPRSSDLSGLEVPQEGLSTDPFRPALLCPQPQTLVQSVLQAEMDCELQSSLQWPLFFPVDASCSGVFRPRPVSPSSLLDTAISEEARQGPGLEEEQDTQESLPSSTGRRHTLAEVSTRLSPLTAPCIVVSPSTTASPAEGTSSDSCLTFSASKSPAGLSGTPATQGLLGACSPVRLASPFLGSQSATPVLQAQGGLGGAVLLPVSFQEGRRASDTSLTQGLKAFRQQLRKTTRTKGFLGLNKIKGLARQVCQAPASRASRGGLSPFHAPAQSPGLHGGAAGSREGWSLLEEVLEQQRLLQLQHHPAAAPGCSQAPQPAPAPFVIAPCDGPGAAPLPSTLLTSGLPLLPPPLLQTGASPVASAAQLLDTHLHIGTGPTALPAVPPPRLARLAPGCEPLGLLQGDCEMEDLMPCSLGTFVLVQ
Compound,pIC50 (SIK1 [1]),pIC50 (SIK2 [2]),pIC50 (SIK3 [3]),pEC50 [4],pIC50 (SIK1 [5]),pIC50 (SIK2 [6]),pIC50 (SIK3 [7])
"COc1cc(-c2cnc3cc(C4CCN(C(=O)OC(C)(C)C)CC4)ccn23)cc(OC)c1C(=O)NCC(F)(F)F [Cpd 16, tert-butyl 4-[3-[3,5-dimethoxy-4-(2,2,2-trifluoroethylcarbamoyl)phenyl]imidazo[1,2-a]pyridin-7-yl]piperidine-1-carboxylate]",< 6.30,6.30 to 7.00,7.00 to 8.00,< 5.30,,,
"COc1cc(-c2cnc3cc(C(C)(C)C#N)ccn23)cc(OC)c1C(=O)NCC(F)(F)F [Cpd 17, 4-[7-(1-cyano-1-methyl-ethyl)imidazo[1,2-a]pyridin-3-yl]-2,6-dimethoxy-N-(2,2,2-trifluoroethyl)benzamide]",< 6.30,< 6.30,7.00 to 8.00,6.00 to 7.00,< 6.30,< 6.30,7.00 to 8.00
"COc1cc(-c2cnc3cc(C(C)(C)C#N)ccn23)cc2c1C(=O)NCC2 [Cpd 20, 2-[3-(8-methoxy-1-oxo-3,4-dihydro-2H-isoquinolin-6-yl)imidazo[1,2-a]pyridin-7-yl]-2-methyl-propanenitrile]",< 6.30,< 6.30,7.00 to 8.00,5.30 to 6.00,< 6.30,< 6.30,7.00 to 8.00
"COc1cc(-c2cnc3cc(C4CCCN(C)C4)ccn23)cc(OC)c1C(=O)NCC(F)(F)F (stereo not shown) [Cpd 24, 2,6-dimethoxy-4-[7-(1-methyl-3-piperidyl)imidazo[1,2-a]pyridin-3-yl]-N-(2,2,2-trifluoroethyl)benzamide]",< 6.30,6.30 to 7.00,7.00 to 8.00,5.30 to 6.00,< 6.30,6.30 to 7.00,7.00 to 8.00
"COc1cc(-c2cnc3cc(C(C)(C)C#N)ccn23)cc2c1C(=O)N(CC(F)(F)F)CC2 [Cpd 25, 2-[3-[8-methoxy-1-oxo-2-(2,2,2-trifluoroethyl)-3,4-dihydroisoquinolin-6-yl]imidazo[1,2-a]pyridin-7-yl]-2-methyl-propanenitrile]",< 6.30,< 6.30,7.00 to 8.00,5.30 to 6.00,< 6.30,< 6.30,7.00 to 8.00
"COc1cc(-c2cnc3cc(C(C)C#N)ccn23)cc(OC(F)F)c1C(=O)NC1CC1 (stereo not shown) [Cpd 26, 4-[7-(1-cyanoethyl)imidazo[1,2-a]pyridin-3-yl]-N-cyclopropyl-2-(difluoromethoxy)-6-methoxy-benzamide]",< 6.30,6.30 to 7.00,7.00 to 8.00,6.00 to 7.00,< 6.30,6.30 to 7.00,8.00 to 11.00
"COc1cc(-c2cnc3cc(C4(C#N)CCC4)ccn23)cc(OC(F)F)c1C(=O)NC1CC1 [Cpd 34, 4-[7-(1-cyanocyclobutyl)imidazo[1,2-a]pyridin-3-yl]-N-cyclopropyl-2-(difluoromethoxy)-6-methoxy-benzamide]",< 6.30,< 6.30,7.00 to 8.00,6.00 to 7.00,< 6.30,6.30 to 7.00,8.00 to 11.00
